Reference: US5302611A, “Oxindole alkaloids having properties stimulating the immunologic system & preparation containing the same” (Keplinger; Klaus, priority 1980, dated 1994)
Like-named read-outs stand apart in the source and are kept apart here.

Legend:
[1] = system: isolated polymorphonuclear leucocytes (PMNL); test: Chemiluminescence test (CL), PMNL method (isolated granulocytes); assay type: cell-based, human; details: CL method not stated
Description: 2. Chemiluminescence test (CL)
The low light yield of such CL-reactions of phagocytised cells is increased in the in-vitro-experiment by the addition of substances which are oxydated by activated oxygen and thus produce light of a certain wavelength, which can be physically measured. Suitable substrates are luminole (5-amino-2,3-dihydro-1,4-phthalazindione) and lucigenine (10,10'-dimethyl-9,9'-biacri-diniumdinitrate), which increase the CL-response by 10^3 times.
All tests were carried out in 6-channel-Biolumat LB 9505 of Berthold, connected to an Apple-computer with a CL-evaluation program of Berthold.
Lucigenine was chosen for light amplification which emits photons at a narrow wavelength distribution of about 510 nm and thus almost lies in the optimum of the photo-multiplier sensitivity.
The pH-value of the measuring solution should be between 7.1 and 7.4, which is obtained by the addition of veronal-buffered salt solution. The test substances were dissolved in phosphate-buffered salt solution, (PBS-buffer). Both buffer systems contain 0.1% of glucose, because the "respiratory-burst"-reaction is connected with an increase of the glucose-metabolism.
Opsonised zymosan was used for phagocyte-activation. The measurement of the CL of isolated granulocytes was carried out with native blood of isolated polymorphonuclear leucocytes (PMNL), which had been adjusted with PBS-Puffer to 10^6 […].
The test substances were first together with the isolated granulocytes or with the whole blood incubated at room temperature for 10 minutes and then in biclumate for 10 minutes at 37° C. After addition of the opsonised zymosan, measurement in the biolumat at 37° C. started. […] A curve which was typical for each substance was obtained. The integrated surfaces are directly proportional to the intensity of the CL-response.
For determining the stimulation of the "respiratory-burst" of granulocytes,which had taken place, the same formula as for the granulocytic test was used.
20 ml of native blood were mixed with 30 mg EDTA. 15 ml of this blood were mixed with 7 ml of dextran in a syringe and allowed to stand at room temperature for 30 minutes. The leucocyte-containing supernatant was transfered into a sterile centrifugal tube and centrifugated at 1000 r.p.m. for 10 minutes. The deposit consisted of leucocytes and residual portions of erythrocytes, which can influence measurement by their colour quench. The residual erythrocytes were removed by hypotonic lyis. For this purpose, the deposit was suspended in 0.25% of NaCl-solution and agitated on the whirlmix for 20 seconds. Then 20 ml of 1.6% NaCl-solution were admixed and agitated again. After centrifugation at 2000 r.p.m. for 10 minutes, the supernatant was sucked off and the whole process was repeated twice. Subsequently, the deposit was suspended in 2 ml of PBS-buffer and diluted 1:10 with Turcks-solution. It was adjusted in the Neubauer's chamber with PBS-buffer to 10^6 -cells/ml.
630 μl of veronal-buffered salt solution
100 μl of lucigenine-solution
200 μl of substance dissolved in PBS and PBS as control
After preincubation at room temperature for 10 minutes and subsequent incubation for 10 minutes at 37° C. in 6-channel-Biolumat, 40 μl of opsonised zymosan were admixed under through stirring and measurement was started. Measuring was stopped after 60 minutes.
The CL-response of the samples was stored by a computer over the measuring period, and after measurement illustrated in the form of a curve. By integration of the surfaces, the intensity of the CL-response of the respective sample was obtained in cpm.
The increase S of the CL-response by a test substance was calculated according to [formula]

[2] = system: neutrophil granulocytes (PMNL); test: Granulocytic test modified after BRANDT (phagocytosis of yeast particles); assay type: cell-based, human
Text: 1. […] They represent about 60-70% of all leucocytes in the human blood. The phagocytosis effect of all these granulocytes can be measured in vitro according to a method developed by BRAND (Scand. J. Haematol. Suppl. 2, 1967) and modified by TYMPNER (Munich Med. Weekly 8, 251, 1978).
A granulocytic fraction is taken from the blood of healthy probands (PMNL--abbreviation of polymorphonuclearleucocytes)
This PMNL-fraction mainly consists of neutrophil granulocytes and few eosinophil and basophil granulocytes as well as of lymphocytes, monocytes and thrombocytes. After addition of a defined amount of yeast cells (Saccharomyces cerevisiae) and the substance to be tested incubation is carried out for 10 minutes at 37° C., the suspension is spread on an object carrier and incubated at room temperature for further 35 minutes. Then the spreads are coloured and microscopically evaluated. 100 PMNL-cells are selected per object carrier, and it is determined how many yeast particles of the individual cells have been phagocytised. The phagocytosis index indicates the average number of phagocytised yeast particles.
15 ml of heparinised venous blood of clinically healthy adults was diluted with 1.5% of dextran T 500 (Pharmacia) 2:1 and allowed to stand at room temperature for 30 minutes. The supernatant containing leucocytes was injected into a sterile plastic tube and centrifugated for 7 minutes at 500 r.p.m. The granulocytes in the deposit were washed twice with 5 ml of PPM I-buffer in each case. Then the granulocytes were suspended in about 5 ml of buffer and adjusted in the Neubauer's chamber to a concentration of 5×10^6 cells/ml.
Yeast suspended in 0.9% of NaCl was heated to 100° C., three times filtered through gaze and adjusted to 3-5×10^7 particles/ml.
The serum of 5 clinically healthy adults was mixed and frozen in portions of 5 ml. For the test dilution was carried out with 0.9% of NaCl 1:10.
The test was carried out as follows: 0.2 ml of substance dissolved in 0.9% of NaCl and 0.2 ml of 0.9% NaCl, as a control substance, were pipetted to 0.2 ml, each, of pool serum, granulocyte- and yeast suspension and first incubated for 10 minutes at 37° C. Then 0.5 ml of each preparation were applied to an object carrier and incubated in a humid chamber at room temperature for further 35 minutes. Granulocytes deposited, the supernatant was carefully washed with 0.9% of NaCl, and the object carrier was dried with a dryer.
100 granulocytes were counted out per object carrier, and it was determined how many yeast particles of the individual cells had been phagocytised. The phagocytosis index (PJ) indicates the average number of yeast particles per granulocyte. The increase (S) of the phagocytosis activity in the blank value was calculated according to: [formula]

[3] = up to a concentration of 10^-4 %

Row | Compound | activity in the granulocytic test [2] | percental phagocytosis increase ([2]; concentration 10^-2) | percental phagocytosis increase ([2]; concentration 10^-3) | percental phagocytosis increase ([2]; concentration 10^-4) | percental phagocytosis increase ([2]; concentration 10^-5) | effect in the granulocytic test [2, 3] | other results
1 | COC(=O)C1=COC(C)C2CN3CCC4(C(=O)Nc5ccccc54)C3CC12 (single isomer, unassigned; isomer a) [Isomitraphylline, normal-isomitraphylline, isomer A] | active | 16.5% | 27.0% | 27.0% | 19.4% |  | percental increase of the CL-response ([1]; concentration 10^-3 %): 15.4%; percental increase of the CL-response ([1]; concentration 10^-4 %): 15.7%; percental increase of the CL-response ([1]; concentration 10^-5 %): 36.1%; percental increase of the CL-response ([1]; concentration 10^-6 %): 46.7%; percental increase of the CL-response ([1]; concentration 10^-7 %): 18.6%; percental phagocytosis increase ([2]; concentration 10^-6): 5.7%
2 | COC(=O)C1=COC(C)C2CN3CCC4(C(=O)Nc5ccccc54)C3CC12 (single isomer, unassigned; isomer a) [Isopteropodine, allo-isopteropodine, isomer A] | active | 23.4% | 48.7% | 55.9% | 38.2% |  | activation at 1e-08 % ([1]; Homo sapiens, PMNL, concentration 10^-8 %, read-out: percental increase of the CL-response): 31.2%; percental increase of the CL-response ([1]; concentration 10^-3 %): 67.2%; percental increase of the CL-response ([1]; concentration 10^-4 %): 66.0%; percental increase of the CL-response ([1]; concentration 10^-5 %): 55.7%; percental increase of the CL-response ([1]; concentration 10^-6 %): 68.1%; percental increase of the CL-response ([1]; concentration 10^-7 %): 55.3%; percental phagocytosis increase ([2]; concentration 10^-6): 28.2%; percental phagocytosis increase ([2]; concentration 10^-7): 13.6%
3 | CCC1CN2CCC3(C(=O)Nc4ccccc43)C2CC1C(=COC)C(=O)OC (single isomer, unassigned; isomer a) [Isorhynchophylline, normal-isorhynchophylline, isomer A] | active | 10.8% | 25.2% | 27.3% | 16.1% |  | percental phagocytosis increase ([2]; concentration 10^-6): 8.8%
4 | COC(=O)C1=COC(C)C2CN3CCC4(C(=O)Nc5ccccc54)C3CC12 (single isomer, unassigned; isomer b) [Mitraphylline, normal-mitraphylline, isomer B] | not active |  |  |  |  |  | 
5 | COC(=O)C1=COC(C)C2CN3CCC4(C(=O)Nc5ccccc54)C3CC12 (single isomer, unassigned; isomer b) [Pteropodine, allo-pteropodine, isomer B] | active | 11.2% | 21.7% | 26.1% | 23.0% |  | percental increase of the CL-response ([1]; concentration 10^-3 %, listed as Pteropidine): 10.6%; percental increase of the CL-response ([1]; concentration 10^-4 %, listed as Pteropidine): 10.0%; percental increase of the CL-response ([1]; concentration 10^-5 %, listed as Pteropidine): 23.7%; percental increase of the CL-response ([1]; concentration 10^-6 %, listed as Pteropidine): 15.4%
6 | CCC1CN2CCC3(C(=O)Nc4ccccc43)C2CC1C(=COC)C(=O)OC (single isomer, unassigned; isomer b) [Rhynchophylline, normal-rhynchophyllin, isomer B] | not active |  |  |  |  |  | 
7 | C=C[C@]12CN(C)[C@@H]3[C@H]4CO[C@H](C[C@H]41)[C@]1(C(=O)Nc4ccccc41)[C@@H]32 [Gelsemine, gelsemine, reference compound] |  | 22.1% | 40.4% | 33.7% | 8.2% |  | 
8 | COC(=O)C1=COC(C)C2CN3CCC4(C(=O)Nc5ccccc54)C3CC12 (centres unmarked) [Speciophylline, speciophylline] |  | 10.5% | 18.5% | 26.0% | 35.3% |  | 
9 | COc1ccc2cc3[n+](cc2c1OC)CCc1cc2c(cc1-3)OCO2 [berberine, reference compound] |  |  |  |  |  | inactive | 
10 | CC[C@@]1(O)C(=O)OCc2c1cc1n(c2=O)Cc2cc3ccccc3nc2-1 [camotothecine, reference compound] |  |  |  |  |  |  | effect in the granulocytic test ([2]; up to dilutions of 10^-6 %): no effects have been found
11 | O=c1cccc2n1C[C@@H]1CNC[C@H]2C1 [cytisine, reference compound] |  |  |  |  |  |  | effect in the granulocytic test [2]: did not show any effect
12 | C1CCN2C[C@@H]3C[C@@H](CN4CCCC[C@@H]34)[C@H]2C1 [sparteine, reference compound] |  |  |  |  |  | did not show any effect | 
13 | COc1cc2c(cc1OC)[C@H](Cc1ccc(Oc3c4c(cc(OC)c3OC)-c3c(OC)c(OC)c(OC)c5c3[C@H](C4)N(C)CC5)cc1)N(C)CC2 [thalifaberine, reference compound] |  |  |  |  |  | negative | 
14 | huangshanine [reference compound] |  |  |  |  |  | negative | 
15 | thalifabine [reference compound] |  |  |  |  |  | negative | 
